Data: US10641778B2, “System and method for analysis of peptide synthesis fidelity” (Roche Sequencing Solutions, Inc., priority 2015, dated 2020)
No end group written: not given here.

Tests used:
[1] = test system: engineered form of the protein streptavidin; assay: Detection of acetic acid contamination of the arginine synthesis reagent: streptavidin signal output on control peptide features; assay type: binding
Protocol: In another example according to the present disclosure, a control peptide sequence was used to identify the presence of a contaminant in the arginine synthesis reagent. Preliminarily, it was determined using the methods described herein that the control peptide sequence [N]-GYERPGWKLAG-[C] (SEQ ID NO:19) can be used to detect the presence (or absence) of acetic acid in one or more of the synthesis reagents used to synthesize a population of peptides including the control peptide sequence GYERPGWKLAG (SEQ ID NO:19). In the present example, peptide sequences were synthesized from the C-terminus to the N-terminus. Using this synthesis scheme, it was determined that the amino acid Pro in the 5th position from the N-terminus of SEQ ID NO:19 is susceptible to acetylation in the presence of acetic acid. Without being limited by theory, it is hypothesized that as the direction of synthesis is from the C-terminus to the N-terminus, instead of addition of the amino acid Arg in the 4th position from the N-terminus following addition of the amino acid Pro in the 5th position, acetic acid was able to form an amino acid bond with the terminal proline.
Moreover, the concentration of acetic acid in a synthesis reagent can be correlated with the signal output characteristic of the interaction of the streptavidin receptor with the control peptide feature (SEQ ID NO:19) or the truncated version thereof (SEQ ID NO:20). […] However, the amino acids at the N-terminus should be selected such that there is a detectable difference in the interaction of streptavidin with the alternative control peptide.
To illustrate the detection of varying concentrations of acetic acid in a peptide synthesis reagent, four different NPPOC-protected arginine reagent solutions were prepared with differing concentrations (volume %) of acetic acid. A first arginine solution included no detectable amount of acetic acid (i.e., about 0.00%), a second arginine solution included 0.03% acetic acid, a third arginine solution included a 0.18% acetic acid, and a fourth arginine solution included 0.38% acetic acid. Four different synthetic peptide populations were synthesized using one of the four arginine solutions, and the signal output characteristic of the interaction of the streptavidin receptor with each of the control peptide features (SEQ ID NO:19) or the truncated versions thereof (SEQ ID NO:20) was determined (FIG. 24). […] In the present example, the raw signal output associated with the arginine reagent solution including 0.03% acetic acid was 1000 units, whereas the signal output associated with the arginine reagent solutions including 0.38% acetic acid was about 30,000 units. […]

[2] = biological target: streptavidin (Streptomyces avidinii, UniProt P22629); assay: Streptavidin receptor interaction with control peptide features on a peptide array, fluorescence signal (substitution/deletion profiles); assay type: binding; conditions: raw fluorescence signal of streptavidin interaction with control peptide; variants at 6th position from N-terminus (FIG. 8A)
Text: A number of receptor molecules 616 are shown as interacting with the peptide feature 606. Interaction of the receptor molecules 616 with the peptide feature 606 can include binding, catalysis of (or participation in) a reaction including peptides within the peptide feature 606, digestion of the peptides within the feature 606, the like, and combinations thereof. In the present example shown in FIGS. 6A-6C, the receptor 616 was used in the identification of the peptide binder sequence represented by the peptides in the feature 606 (i.e., [N]-Gly-Phe-Glu-Asp-Tyr-Leu-Gly-Glu-Tyr-His-Gly-[C] (SEQ ID NO:1)). […] In one aspect, the interaction of the receptor molecules 616 with the population of peptide features 602 on the peptide array 600 can be detected, for example, by labelling the receptor molecules 616 with a detectable tag 618 (FIG. 6C). […]
In a next step 660 of the method 650, the synthetic peptide population is interrogated in the presence of a receptor having an affinity for the peptide binder sequences encoded by the control peptides. […] Thereafter, in a step 662 of the method 650, an output of the peptide-receptor interaction is detected. […] Accordingly, based on the output detected in the step 662, a step 664 of the method 650 can include assessing the fidelity of amino acid incorporation. […]

Chain of streptavidin (P22629 25-183, species assumed): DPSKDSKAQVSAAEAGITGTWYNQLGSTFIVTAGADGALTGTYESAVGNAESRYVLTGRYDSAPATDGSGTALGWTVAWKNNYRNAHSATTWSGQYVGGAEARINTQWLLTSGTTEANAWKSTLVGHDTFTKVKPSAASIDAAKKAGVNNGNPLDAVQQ

Substance: *PGWKLAG (Ac-PGWKLAG) [*PGWKLAG (SEQ ID NO:20), *P is acetylated N-terminal Pro]
- affinity towards an engineered form of the protein streptavidin ([1]; acetylated truncated peptide on array (FIG. 24)): exhibit intrinsic affinity

Substance: GWTHPMFEQKG [GWTHPMFEQKG (SEQ ID NO:2)]
- average raw signal [2]: 18,000 units

Substance: GYERPGWKLAG [GYERPGWKLAG (SEQ ID NO:19), control peptide to detect acetic acid contamination in synthesis reagents]
- increase in raw signal ([1]; acetic acid in arginine reagent raised from 0.03% to 0.38%): 30 fold
- raw signal output ([1]; control peptide features (SEQ ID NO:19 or truncated SEQ ID NO:20) synthesized with arginine reagent solution including 0.03% acetic acid (FIG. 24)): 1000 units
- signal output ([1]; control peptide features (SEQ ID NO:19 or truncated SEQ ID NO:20) synthesized with arginine reagent solution including 0.38% acetic acid (FIG. 24)): about 30,000 units
